Laboratory results: patent US20110105579A1, “Plant Health Composition” (priority 2008, published 2011)

What was measured:
[1] = test system: Corn (Zea maydis var. M314A10) seedlings; experiment: Cold tolerance of corn seedlings after seed treatment (seedling mortality after exposure to -5° C.); assay type: in vivo; conditions: for Observed efficacy (%) of cold tolerance GS 10 (3 hrs): % decrease of seedling mortality vs untreated control; for Observed efficacy (%) of cold tolerance GS 10 (3 hrs) / Seedling mortality (mean %) GS 10 (3 hrs): S8 2.5 g a.i./100 kg seed, Ia 1 g a.i./100 kg seed; for Seedling mortality (mean %) GS 10 (3 hrs): corn seed treatment, -5° C. for 3 hrs at growth stage 10, recorded 3 days after cold treatment, control 27
Method: Corn (Zea maydis var. M314A10) seeds were treated in a Hege 11 seed treater in a total slurry volume of 1000 ml/100 kg seed. Treatments comprised:
1) Water (control) 2) Pyraclostrobin (S8) (2.5 g a.i./100 kg); 3) Compound Ia (1 g a.i./100 kg); 4) Pyraclostrobin (S8) (2.5 g a.i./100 kg)+compound Ia (1 g a.i./100 kg).
CF Clear Binder (19 ml/100 kg seed) and color coat blue (13 ml/100 kg seed) were added to all treatments including the check. Following seed treatment, seeds were allowed to dry overnight. Seeds were planted in plastic pots (10 cm×10 cm×12 cm). Experiments were conducted using natural soil (sandy loam soil, source NC, U.S.A.). Pots were placed inside the greenhouse in a completely randomized design. Seedlings were grown at 25° C., until they reached growth stages 10 (first leaf through coleoptile, BBCH Scale). At growth stages 10, seedlings were placed in a completely randomized design in a low temperature incubator (Thermo Electron Corporation) and exposed to −5° C. during 3 hrs. At the time of cold exposure, pots were at field capacity. Percentage of seedling mortality for each treatment was recorded 3 days after the cold treatment.
The efficacy of induced cold tolerance (E) was calculated as % decrease of seedling mortality in the treatments compared to the untreated control:
a corresponds to the seedling mortality (%) of the treated plants and b corresponds to the seedling mortality (%) of the untreated (control) plants
The expected efficacy of the combination of the active compounds were estimated using Colby's formula (Colby, S. R., Calculating synergistic and antagonistic responses of herbicide combinations, Weeds, 15, pp. 20-22, 1967) and compared with the observed efficacy.
E=x+y−x·y/100 Colby's formula • E expected efficacy, expressed in % of the untreated control, when using the mixture of the active compounds A and B at the concentrations a and b • x efficacy, expressed in % of the untreated control, when using the active ingredient A at the concentration a • y efficacy, expressed in % of the untreated control, when using the active ingredient B at the concentration b

[2] = test system: Soybeans, variety TMG 103 RR; experiment: Soybean field trial: crop emergence and crop establishment after seed treatment (plant count per 5 m row); assay type: in vivo; conditions: for Observed efficacy (%) 12 days after planting / Observed efficacy (%) 33 days after planting: increase in number of plants vs control, S6 75, Ia 50 g a.i./100 kg seed; for Number of plants per 5 m distance (mean) 12 days after planting / Number of plants per 5 m distance (mean) 33 days after planting: soybean seed treatment, S6 75 g a.i./100 kg seed, Ia 50 g a.i./100 kg seed; for Number of plants per 5 m distance (mean) 12 days after planting: crop emergence, control 35; for Number of plants per 5 m distance (mean) 33 days after planting: crop establishment, control 34
Method: Soybeans were grown in 2008 in the Rondonopolis region, Mato Grosso, Brazil. The variety TMG 103 RR was planted at a seeding rate of 45 kg/ha. The trial was setup as randomized bloc design with 4 replications. Plot size was 10 m^2. The soybean seed was treated prior to planting with either orysastrobin (S6), compound Ia or was left untreated (Control). Compound Ia was used as an FS formulation (100 g a.i./L) with a dose rate of 500 ml/100 kg seed (50 g a.i./100 kg). Orysastrobin (S6) was applied as an FS formulation (250 g a.i./L) with a dose rate of 300 ml per 100 kg seed (75 g a.i./100 kg). In the combination treatments of compound Ia and orysastrobin, both formulations were applied in a sequence. The formulations were applied in a total slurry volume of […] of seed.
The observed efficacy (E) of the compounds on crop emergence and crop establishment as an indicator of plant vitality and plant vigor was determined by counting the plants in a row on a distance of 5 m at 12 and 33 days after planting.
The efficacy of the fungicidal treatments was calculated as the increase in the number of plants in the treatments compared to the control (%):
a corresponds to the number in the treated and b corresponds to the number of plants in the untreated (control) plots
The expected efficacy of the combination of the active compounds was estimated using Colby's formula (see example 1 above)

Cn1cc(C(=O)Nc2ccccc2-c2cc(F)c(F)c(F)c2)c(C(F)F)n1 [Compound Ia, N-(3′,4′,5′-trifluorobiphenyl-2-yl)-3-difluoromethyl-1-methyl-1H-pyrazole-4-carboxamide]
Observed efficacy (%) of cold tolerance GS 10 (3 hrs) [1]: 15% | Seedling mortality (mean %) GS 10 (3 hrs) [1]: 23 (b) % | seedling mortality, as an indicator of plant vigor (in words) ([1]; vs water control, table 4): significantly decreased | Observed efficacy (%) 12 days after planting [2]: 40.0% | Observed efficacy (%) 33 days after planting [2]: 32.3% | Number of plants per 5 m distance (mean) 12 days after planting [2]: 49 | Number of plants per 5 m distance (mean) 33 days after planting [2]: 45 | number of plants, as an indicator of plant vigor (in words) ([2]; vs untreated control, table 6): significantly increased

CNC(=O)/C(=N/OC)c1ccccc1CO/N=C(C)/C(=N/OC)C(/C)=N/OC [Orysastrobin (S6), orysastrobin, reference compound]
Observed efficacy (%) 12 days after planting [2]: 57.1% | Observed efficacy (%) 33 days after planting [2]: 52.9% | Number of plants per 5 m distance (mean) 12 days after planting [2]: 55 | Number of plants per 5 m distance (mean) 33 days after planting [2]: 52

COC(=O)N(OC)c1ccccc1COc1ccn(-c2ccc(Cl)cc2)n1 [Pyraclostrobin (S8), pyraclostrobin, reference compound]
Observed efficacy (%) of cold tolerance GS 10 (3 hrs) [1]: 22% | Seedling mortality (mean %) GS 10 (3 hrs) [1]: 21 (c) %
